We go through 6 compounds from ChEMBL document CHEMBL1149854, “Glycosides from the bark of Adina polycephala” (2008).

This assay in a line: Antiinflammatory activity in rat polymorphonuclear leukocytes assessed as inhibition of platelet activating factor-induced release of beta-glucuronidase at 10 uM after 15 mins. Format: functional. Particulars: 0.25 h.

One may read the inhibition as how much of the control response was suppressed. As to `COc1cc(C(=O)OC[C@H]2O[C@@H](OC(=O)c3cc(OC)c(O)c(OC)c3)[C@H](O)[C@@H](O)[C@@H]2O)ccc1O[C@@H]1O[C@H](COC(=O)c2cc(OC)c(O)c(OC)c2)[C@@H](O)[C@H](O)[C@H]1O`, the inhibition at 10 µM was 6%.
Next, `COC(=O)C1=CO[C@@H](O[C@@H]2O[C@H](CO[C@@H]3O[C@@H](C)[C@H](O)[C@@H](O)[C@H]3O)[C@@H](O)[C@H](O)[C@H]2O)[C@@H]2C(CO)=CC[C@H]12`: 44.8%.
On to `COc1cc(O)ccc1O[C@@H]1O[C@H](COC(=O)c2ccc(O[C@@H]3O[C@H](COC(=O)c4cc(OC)c(O)c(OC)c4)[C@@H](O)[C@H](O)[C@H]3O)c(OC)c2)[C@@H](O)[C@H](O)[C@H]1O`, for which the inhibition at 10 µM worked out at 43.6%.
Consider `COc1cc(C(=O)O)ccc1O[C@@H]1O[C@H](COC(=O)c2ccc(O[C@@H]3O[C@H](COC(=O)c4cc(OC)c(O)c(OC)c4)[C@@H](O)[C@H](O)[C@H]3O)c(OC)c2)[C@@H](O)[C@H](O)[C@H]1O`, for which the inhibition at 10 µM came to 60.2%.
Regarding `COc1cc(O[C@@H]2O[C@H](COC(=O)c3ccc(O[C@@H]4O[C@H](COC(=O)c5cc(OC)c(O)c(OC)c5)[C@@H](O)[C@H](O)[C@H]4O)c(OC)c3)[C@@H](O)[C@H](O)[C@H]2O)ccc1O`, the inhibition at 10 µM is 25.2%.
As for `C[C@@H]1C(=O)O[C@H]2[C@H](O)[C@@]34[C@H]5C[C@@H](C(C)(C)C)[C@]36[C@@H](OC(=O)[C@@H]6O)O[C@@]4(C(=O)O5)[C@@]12O` [GINKOLIDE B], the inhibition at 10 µM worked out at 78.8%.
